Experimental data reported in patent publication US9284283B2, “Macrocyclic compounds for modulating IL-17” (ENSEMBLE THERAPEUTICS CORPORATION, priority 2012, dated 2016).
Read-outs that look alike come from different tables or passages of the source.

How the values were obtained:
[1] = molecular target: T1, recombinant human IL17a (binding to its receptor IL17R) (Homo sapiens, UniProt Q16552); assay: IL-17 competition ELISA I (IL17a coated, IL17R/Fc binding)
T1 construct: purchased R&D Systems 317-ILB (IL17a); 177-IR (IL17R/Fc)
T1 sequence (Q16552 20-155 limits assumed): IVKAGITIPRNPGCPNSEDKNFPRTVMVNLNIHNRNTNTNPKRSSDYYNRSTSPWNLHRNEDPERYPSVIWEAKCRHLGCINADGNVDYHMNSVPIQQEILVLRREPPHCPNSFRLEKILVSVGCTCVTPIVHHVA
Summary of the method: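 Plates coated with 20 nM recombinant human IL17a received compound dilutions and 12 nM IL17R/Fc (final) for 30 min at room temperature. Bound receptor was detected with HRP anti-human Fc and TMB, read at 450 nm. IC50 came from a 4-parameter logistic fit between no-competitor and blank controls.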

[2] = tested on: IL-17A induced secretion of IL-6 in primary human RASF cells; assay: Inhibition of IL17A induced secretion of IL6 in human rheumatoid arthritis synovial fibroblast (RASF) cells; format: cell-based
Protocol: This assay was used to determine the extent of inhibition of IL-17A induced secretion of IL-6 in primary human rheumatoid synovial fibroblast (RASF) cells by compounds of the invention. IL-17A is known to stimulate IL-6 production in RASF cells.
Low passage (passage 2-8) Primary human RASF cells (Asterand) were maintained in maintenance medium. Cells were detached from flasks by tryptic digestion and the cell density of the suspension determined. To each well of a 96 well culture plate was added 100 μL of seeding medium containing 50,000 cells/mL and the plate incubated overnight in a humidified 37° C., 5% CO2 incubator. The medium was replaced with fresh assay medium and cells were incubated for additional 5 hours in a humidified 37° C., 5% CO2 incubator prior to stimulation with recombinant human IL-17A (“rhIL-17A”). Prior to addition to cells, rhIL-17A (30 ng/mL) in assay medium was incubated with either DMSO alone, compounds, or anti-IL17 receptor antibody (3 μg/mL) for 1 hour at 37° C. The final concentration of DMSO in all samples was 0.25%. The final concentration of compounds varied from 0.03 μM to 25 μM.
Immediately before stimulation, cells were washed once with fresh assay medium. Then, 100 μL of the test samples was added in triplicate wells and the plates incubated for 20 hours in a humidified 37° C., 5% CO2 incubator. The assay medium from each well was collected and the IL-6 concentration in cell culture supernatants was determined by ELISA either immediately or after storage at −20° C.
A water-soluble tetrazolium salt (WST1) viability assay was immediately performed on the cells after the conditioned medium was collected using a WST1 reagent purchased from Roche. The concentration of IL-6 obtained from ELISA was normalized by the WST1 data.

[3] = molecular target: T2, biotinylated human IL-17 (binding to IL17R/Fc) (Homo sapiens, UniProt Q16552); assay: IL-17 competition ELISA II (captured IL17R/Fc, biotinylated IL-17)
T2 construct: purchased R&D Systems 317-ILB (IL-17, biotinylated); 177-IR (IL17R/Fc)
T2 sequence (Q16552 20-155 limits assumed): T1 sequence (Q16552 20-155 limits assumed)
Summary of the method: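 Anti-human IgG-coated plates captured IL17R/Fc (10 nM), then compound (5-fold dilutions from 1 μM) and biotinylated human IL-17 (20 nM stock) were added for 30 min at room temperature in PBST. Bound IL-17 detected by streptavidin-HRP/TMB at 450 nm. IC50 from 4-parameter logistic fit between no-competitor and blank controls.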

| Structure (SMILES) | IC50 [1] | IC50 [3] | IC50 ([2]; Homo sapiens, Fibroblast) | IC50 [2] |
| --- | --- | --- | --- | --- |
| O=C1CNC(=O)[C@@H](Cc2ccc(NC(=O)[C@H](Cc3ccccc3Cl)NC(=O)CC3CCCCC3)cc2)NC(=O)CC2(CCCC2)CC(=O)NCCCCCN1 [Compound 236] | < 0.1 µM |  | 1 to 10 µM |  |
| CC1(C)CC(=O)NCCCCCNC(=O)CNC(=O)[C@@H](Cc2ccc(NC(=O)[C@@H](NC(=O)Cc3ccccc3)C3CCCCC3)cc2)NC(=O)C1 [Compound 251] | 0.1 to 1 µM |  | 1 to 10 µM |  |
| CC1(C)CC(=O)NCCCCCNC(=O)CNC(=O)[C@@H](Cc2ccc(NC(=O)[C@@H](NC(=O)Cc3ccc(O)cc3)C3CCCCC3)cc2)NC(=O)C1 [Compound 253] | 0.1 to 1 µM |  | 1 to 10 µM |  |
| CC1(C)CC(=O)NCCCCCNC(=O)CNC(=O)[C@@H](Cc2ccc(NC(=O)[C@@H](NC(=O)c3cccnc3)C3CCCCC3)cc2)NC(=O)C1 [Compound 254] | 1 to 10 µM |  | > 10 µM |  |
| C[C@H]1NC(=O)[C@@H](Cc2ccc(NC(=O)[C@H](Cc3ccccc3Cl)NC(=O)Cc3ccc(N(C)C)cc3)cc2)NC(=O)CC2(CCCC2)CC(=O)N(C)CCN(C)CCN(C)C1=O [Compound 562] |  | < 0.1 µM | 1 to 10 µM |  |
| CC1NC(=O)C(Cc2ccc(NC(=O)C(Cc3ccccc3Cl)NC(=O)C(F)(F)c3ccccc3)cc2)NC(=O)CC2(CCCC2)CC(=O)N(C)CCCCCN(C)C1=O (stereo not drawn) [Compound 566] |  | < 0.1 µM |  | 0.1 to 1 µM |
| C[C@H]1NC(=O)[C@@H](Cc2ccc(NC(=O)[C@H](Cc3ccccc3Cl)NC(=O)C(F)(F)c3ccccc3)cc2)NC(=O)CC2(CCCC2)CC(=O)N(C)CCOCCN(C)C1=O [Compound 567] |  | < 0.1 µM | 0.1 to 1 µM |  |
| O=C1CC2(CCCC2)CC(=O)N[C@H](Cc2ccc(NC(=O)[C@H](Cc3ccccc3Cl)NC(=O)Oc3ccccc3)cc2)C(=O)NCCOCCOCCN1 [Compound 571] |  | < 0.1 µM | 1 to 10 µM |  |
| CN1CCOCCOCCNC(=O)[C@@H](Cc2ccc(NC(=O)[C@H](Cc3ccccc3Cl)NC(=O)Cc3ccc(N(C)C)cc3)cc2)NC(=O)CC2(CCCC2)CC1=O [Compound 582] |  | < 0.1 µM | 1 to 10 µM |  |
| C[C@H]1NC(=O)[C@@H](Cc2ccc(NC(=O)[C@H](Cc3ccccc3Cl)NC(=O)Cc3ccc(N(C)C)cc3)cc2)NC(=O)CC2(CCCC2)CC(=O)N(C)CCOCCN(C)C1=O [Compound 584] |  | < 0.1 µM | 1 to 10 µM |  |
| C[C@H]1NC(=O)[C@@H](Cc2ccc(NC(=O)[C@H](Cc3ccccc3Cl)NC(=O)Cc3ccc(F)cc3)cc2)NC(=O)CC2(CCCC2)NC(=O)CCNC(=O)CCNC1=O [Compound 593] |  | < 0.1 µM | 0.1 to 1 µM |  |
| C[C@H]1NC(=O)[C@@H](Cc2ccc(NC(=O)[C@@H](NC(=O)C(F)(F)c3ccccc3)C3CCCCC3)cc2)NC(=O)CC2(CCCC2)CC(=O)N(C)CCCCCN(C)C1=O [Compound 600] |  | < 0.1 µM | 1 to 10 µM |  |
| C[C@H]1NC(=O)[C@@H](Cc2ccc(NC(=O)[C@@H](NC(=O)Cc3ccc(N(C)C)cc3)C3CCCCC3)cc2)NC(=O)CC2(CCCC2)CC(=O)N(C)CCCCCN(C)C1=O [Compound 601] |  | < 0.1 µM | 1 to 10 µM |  |
| CN1CCCCCN(C)C(=O)[C@@H](CCC(N)=O)NC(=O)[C@@H](Cc2ccc(NC(=O)[C@@H](NC(=O)Cc3ccc(N(C)C)cc3)C3CCCCC3)cc2)NC(=O)CC2(CCCC2)CC1=O [Compound 626] |  | < 0.1 µM | 0.1 to 1 µM |  |
| CN1CCCCCN(C)C(=O)[C@@H](Cc2ccncc2)NC(=O)[C@@H](Cc2ccc(NC(=O)[C@H](Cc3ccccc3Cl)NC(=O)C(F)(F)c3ccccc3)cc2)NC(=O)CC2(CCCC2)CC1=O [Compound 627] |  | < 0.1 µM | 0.1 to 1 µM |  |
| CC(O)[C@H]1NC(=O)[C@@H](Cc2ccc(NC(=O)[C@H](Cc3ccccc3Cl)NC(=O)C(F)(F)c3ccccc3)cc2)NC(=O)CC2(CCCC2)CC(=O)N(C)CCOCCN(C)C1=O (stereo partly drawn) [Compound 639] |  | < 0.1 µM | 1 to 10 µM |  |
| CN1CCCCCN(C)C(=O)[C@@H](CCC(N)=O)NC(=O)[C@@H](Cc2ccc(NC(=O)[C@H](Cc3ccccc3Cl)NC(=O)C(F)(F)c3ccccc3)cc2)NC(=O)CC2(CCCC2)CC1=O [Compound 645] |  | < 0.1 µM | 0.1 to 1 µM |  |
| CN1CCCCCN(C)C(=O)[C@@H](CCC(N)=O)NC(=O)[C@@H](Cc2ccc(NC(=O)[C@@H](NC(=O)Cc3cccc(O)c3)C3CCCCC3)cc2)NC(=O)CC2(CCCC2)CC1=O [Compound 646] |  | < 0.1 µM | 1 to 10 µM |  |
| CN1CCCCCN(C)C(=O)[C@@H](CCC(N)=O)NC(=O)[C@@H](Cc2ccc(NC(=O)[C@@H](NC(=O)Cc3ccc(CO)cc3)C3CCCCC3)cc2)NC(=O)CC2(CCCC2)CC1=O [Compound 653] |  | < 0.1 µM | 1 to 10 µM |  |

The next lines start with results.

| IC50 [1] | IC50 [3] | Structure (SMILES) | IC50 ([2]; Homo sapiens, Fibroblast) | IC50 [2] |
| --- | --- | --- | --- | --- |
| < 0.1 µM |  | CN1CCNC(=O)CNC(=O)[C@@H](Cc2ccc(NC(=O)[C@H](Cc3ccccc3Cl)NC(=O)Cc3ccc(O)cc3)cc2)NC(=O)CC2(CCCC2)CC(=O)NCC1 [Compound 260] | 1 to 10 µM |  |
| < 0.1 µM |  | O=C1CC2(CCCC2)CC(=O)N[C@H](Cc2ccc(NC(=O)[C@H](Cc3ccccc3Cl)NC(=O)Cc3ccccc3)cc2)C(=O)N[C@H](Cc2ccccc2)C(=O)NCCCCCN1 [Compound 261] | 1 to 10 µM |  |
| < 0.1 µM |  | O=C1CC2(CCCC2)CC(=O)N[C@H](Cc2ccc(NC(=O)[C@H](Cc3ccccc3Cl)NC(=O)Cc3ccc(O)cc3)cc2)C(=O)NCCCCCCCCN1 [Compound 263] | 1 to 10 µM |  |
|  | < 0.1 µM | C[C@H]1NC(=O)[C@@H](Cc2ccc(NC(=O)[C@H](Cc3ccccc3Cl)NC(=O)C(F)(F)c3ccc(F)cc3)cc2)NC(=O)CC2(CCCC2)CC(=O)NCCCCCNC1=O [Compound 560] | < 0.1 µM |  |
|  | < 0.1 µM | CC1NC(=O)C(Cc2ccc(NC(=O)C(Cc3ccccc3Cl)NC(=O)Cc3ccc(F)cc3)cc2)NC(=O)C2(CCCC2)CCC(=O)NCCCCCNC1=O (stereo not drawn) [Compound 561] |  | 1 to 10 µM |
|  | < 0.1 µM | NC(=O)C[C@H]1NC(=O)[C@@H](Cc2ccc(NC(=O)[C@H](Cc3ccccc3Cl)NC(=O)Cc3ccc(CO)cc3)cc2)NC(=O)CC2(CCCC2)CC(=O)N[C@H](C(=O)O)CCCCNC1=O [Compound 656] | < 0.1 µM |  |
|  | < 0.1 µM | O=C1CC2(CCCC2)CC(=O)N[C@H](Cc2ccc(NC(=O)[C@H](Cc3ccccc3Cl)NC(=O)Cc3ccc(CO)cc3)cc2)C(=O)N[C@H](Cc2cccnc2)C(=O)NCCCC[C@@H](C(=O)O)N1 [Compound 657] | < 0.1 µM |  |
|  | < 0.1 µM | O=C1CC2(CCCC2)CC(=O)N[C@H](Cc2ccc(NC(=O)[C@H](Cc3ccccc3Cl)NC(=O)Cc3ccc(CO)cc3)cc2)C(=O)N[C@H](Cc2cscn2)C(=O)NCCCC[C@@H](C(=O)O)N1 [Compound 658] | < 0.1 µM |  |
|  | < 0.1 µM | CC(C)C[C@H]1NC(=O)[C@@H](Cc2ccc(NC(=O)[C@H](Cc3ccccc3Cl)NC(=O)Cc3ccc(CO)cc3)cc2)NC(=O)CC2(CCCC2)CC(=O)N[C@H](C(=O)O)CCCCNC1=O [Compound 660] | < 0.1 µM |  |
|  | < 0.1 µM | O=C1CC2(CCCC2)CC(=O)N[C@H](Cc2ccc(NC(=O)[C@H](Cc3ccccc3Cl)NC(=O)Cc3ccc(CO)cc3)cc2)C(=O)N[C@H](Cc2c[nH]c3ccccc23)C(=O)NCCCC[C@@H](C(=O)O)N1 [Compound 661] | < 0.1 µM |  |
|  | < 0.1 µM | O=C1CC2(CCCC2)CC(=O)N[C@H](Cc2ccc(NC(=O)[C@H](Cc3ccccc3Cl)NC(=O)Cc3ccc(CO)cc3)cc2)C(=O)N[C@H](Cc2c[nH]cn2)C(=O)NCCCC[C@@H](C(=O)O)N1 [Compound 662] | < 0.1 µM |  |
